Structures are written as SMILES.

The nature of one data set: Metabolic stability test. Format: in vitro ADME. To be noted: human liver microsomes, 0 to 30 minutes; a hydrochloride was used. As for the experimental part: To determine the unchanged product-residual ratio of the test compound in the reaction sample, human liver microsomes and the test compound were reacted for a predetermined time (0 to 30 minutes). The unchanged product-residual ratio at a reaction time of 0 hours was considered 100%, the residual ratio after incubation was log-linear plotted with respect to the time, a regression line (y=100 e^−kt, k=slope of the line: elimination rate constant) was determined, and the metabolic clearance CLint (mL/min/kg) was calculated using the following formula.
CLint*=k (−min)×45 (mg MS protein/g liver)×21 (g liver/kg)/MS protein (mg MS protein/mL)
*: Yamazaki S.; Skaptason J.; Romero D, Vekich S.; Jones HM.; Tan W.; Wilner KD.; Koudriakova T. Drug Metab. Dispos. 2011 March; 39 (3): 383-393.
For orientation: Microsomes from liver hold many membrane-bound enzymes, among them those of drug oxidation.

The target in the next data set is T1, human κ opioid receptors (Homo sapiens, UniProt P41145).
T1 construct: host or cells: CHO cells
As to the kind of experiment: Opioid receptor function test (Lance Ultra cAMP kit, agonist activity). It counts as cell-based. To be noted: CHO cells expressing human κ opioid receptors, 10 μM forskolin, 30 minutes. The procedure, abridged:
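CHO cells expressing human κ opioid receptor incubated 30 min with test compound (10^−14 to 10^−7 M) and 10 μM forskolin in HSS/5 mM HEPES pH 7.4 with 0.5 mM IBMX and 0.1% SA. cAMP measured by TR-FRET (Lance Ultra) 1 h after detection reagent addition.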

T1 sequence (P41145 whole entry): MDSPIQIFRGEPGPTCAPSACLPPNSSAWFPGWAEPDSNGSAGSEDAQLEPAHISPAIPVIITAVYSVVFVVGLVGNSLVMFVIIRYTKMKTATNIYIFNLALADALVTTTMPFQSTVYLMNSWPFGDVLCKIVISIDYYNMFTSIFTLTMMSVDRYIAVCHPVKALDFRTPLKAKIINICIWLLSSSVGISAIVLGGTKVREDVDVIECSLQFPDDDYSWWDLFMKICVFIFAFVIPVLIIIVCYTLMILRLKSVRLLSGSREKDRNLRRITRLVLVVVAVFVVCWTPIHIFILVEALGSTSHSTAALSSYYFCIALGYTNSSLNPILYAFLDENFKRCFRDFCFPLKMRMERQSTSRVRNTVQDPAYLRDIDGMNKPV

As for `O=C(Cc1ncccn1)N1CCC[C@@]2(O)[C@H]3Cc4ccc(O)cc4[C@@]2(CCN3CC2CC2)C1` [Example 139, 1-((5aS,6R,11bS)-14-(cyclopropylmethyl)-5a,10-dihydroxy-3,4,5,5a,6,7-hexahydro-6,11b-(epiminoethano)naphtho[1,2-c]azepin-2(1H)-yl)-2-(pyrimidin-2-yl)ethan-1-one], the CLint scaled in the data set “Metabolic stability test” is 29.7 mL/min/kg.

Regarding `CC1C[C@@]2(O)[C@H]3Cc4ccc(O)cc4[C@]2(CCN1C(=O)Cc1ccccn1)CCN3CC1CC1` (stereo partly drawn) [Example 281, 1-((5aS,6R,11bR)-14-(cyclopropylmethyl)-5a,10-dihydroxy-4-methyl-1,2,5,5a,6,7-hexahydro-6,11b-(epiminoethano)naphtho[1,2-d]azepin-3(4H)-yl)-2-(pyridin-2-yl)ethan-1-one], at human κ opioid receptors, the concentration giving a half-maximal response (EC50) stood at 0.14 nM. For the same compound, the intrinsic clearance (CLint scaled) in the data set “Metabolic stability test” stood at 13.7 mL/min/kg. In turn, `Cc1cnn(CCN2CC[C@]34CCN(CC5CC5)[C@H](Cc5cc(C)c(O)cc53)[C@]4(O)CC2)c1` [Example 262, (5aS,6R,11bS)-14-(cyclopropylmethyl)-9-methyl-3-(2-(4-methyl-1H-pyrazol-1-yl)ethyl)-2,3,4,5,6,7-hexahydro-6,11b-(epiminoethano)naphtho[1,2-d]azepine-5a,10(1H)-diol] came in with a half-maximal effective concentration (EC50) at human κ opioid receptors of 0.085 nM. Also, the CLint scaled in the data set “Metabolic stability test” came out at 5.8 mL/min/kg. The compound `Oc1ccc2c(c1)[C@@]13CCN(CCc4ccc5ccccc5n4)CC[C@@]1(O)[C@@H](C2)N(CC1CC1)CC3` [Example 124, (5aS,6R,11bS)-14-(cyclopropylmethyl)-3-(2-(quinolin-2-yl)ethyl)-2,3,4,5,6,7-hexahydro-6,11b-(epiminoethano)naphtho[1,2-d]azepine-5a,10(1H)-diol] registered an EC50 at human κ opioid receptors of 0.04 nM. Besides, the CLint scaled in the data set “Metabolic stability test” came to 14.3 mL/min/kg. `NC(=O)c1ccc2c(c1)[C@@]13CCN(C(=O)Cn4cc(C(F)(F)F)cn4)CC[C@@]1(O)[C@@H](C2)N(CC1CC1)CC3` [Example 266, (5aS,6R,11bR)-14-(cyclopropylmethyl)-5a-hydroxy-3-(2-(4-(trifluoromethyl)-1H-pyrazol-1-yl)acetyl)-1,2,3,4,5,5a,6,7-octahydro-6,11b-(epiminoethano)naphtho[1,2-d]azepine-10-carboxamide]: the EC50 at human κ opioid receptors is 0.074 nM. The same compound had a CLint scaled in “Metabolic stability test” of 4.4 mL/min/kg. `Cc1cc(CCN2CC[C@]34CCN(CC5CC5)[C@H](Cc5ccc(O)cc53)[C@]4(O)CC2)ns1` [Example 177, (5aS,6R,11bS)-14-(cyclopropylmethyl)-3-(2-(5-methylisothiazol-3-yl)ethyl)-2,3,4,5,6,7-hexahydro-6,11b-(epiminoethano)naphtho[1,2-d]azepine-5a,10(1H)-diol] returned an EC50 on human κ opioid receptors of 0.019 nM. In the data set “Metabolic stability test”, this compound returned a CLint scaled of 9.5 mL/min/kg. As for `Cc1cc2c(cc1O)[C@@]13CCN(C(=O)Cc4ccccn4)CC[C@@]1(O)[C@@H](C2)N(CC1CC1)CC3` [Example 291, 1-((5aS,6R,11bR)-14-(cyclopropylmethyl)-5a,10-dihydroxy-9-methyl-1,2,5,5a,6,7-hexahydro-6,11b-(epiminoethano)naphtho[1,2-d]azepin-3(4H)-yl)-2-(pyridin-2-yl)ethan-1-one], the response at human κ opioid receptors was half-maximal at 0.55 nM (EC50). The CLint scaled in the data set “Metabolic stability test” was determined as 8 mL/min/kg.

In the data set “Metabolic stability test”, `NC(=O)c1ccc2c(c1)[C@@]13CCN(C(=O)Cc4ccccn4)CC[C@@]1(O)[C@@H](C2)N(CC1CC1)CC3` [Example 247, (5aS,6R,11bR)-14-(cyclopropylmethyl)-5a-hydroxy-3-(2-(pyridin-2-yl)acetyl)-1,2,3,4,5,5a,6,7-octahydro-6,11b-(epiminoethano)naphtho[1,2-d]azepine-10-carboxamide] came in with a CLint scaled of 4.8 mL/min/kg.

The compound `COc1c(O)ccc2c1[C@@]13CCN(CCn4cc(C)cn4)CC[C@@]1(O)[C@@H](C2)N(CC1CC1)CC3` [Example 332, (5aS,6R,11bS)-14-(cyclopropylmethyl)-11-methoxy-3-(2-(4-methyl-1H-pyrazol-1-yl)ethyl)-2,3,4,5,6,7-hexahydro-6,11b-(epiminoethano)naphtho[1,2-d]azepine-5a,10(1H)-diol] came in with an EC50 at human κ opioid receptors of 0.64 nM. For the same compound, the CLint scaled in the data set “Metabolic stability test” stood at 9.2 mL/min/kg. In “Metabolic stability test”, `Cc1cnn(CCN2CC[C@]34CCN(CC5CC5)[C@H](Cc5cc(C(N)=O)c(O)cc53)[C@]4(O)CC2)c1` [Example 295, (5aS,6R,11bS)-14-(cyclopropylmethyl)-5a,10-dihydroxy-3-(2-(4-methyl-1H-pyrazol-1-yl)ethyl)-1,2,3,4,5,5a,6,7-octahydro-6,11b-(epiminoethano)naphtho[1,2-d]azepine-9-carboxamide] displayed a CLint scaled of 17.2 mL/min/kg. `Cc1cnn(CCN2CC[C@]34CCN[C@H](Cc5ccc(O)cc53)[C@]4(O)CC2)c1` [Example 176, (5aS,6R,11bR)-3-(2-(4-methyl-1H-pyrazol-1-yl)ethyl)-2,3,4,5,6,7-hexahydro-6,11b-(epiminoethano)naphtho[1,2-d]azepine-5a,10(1H)-diol] returned an intrinsic metabolic clearance (CLint scaled) in “Metabolic stability test” of 8.2 mL/min/kg. Compared with the last compound, the CLint scaled is about 2.1-fold lower.

In turn, `Cc1cnn(CCN2CC[C@]34CCN(CC5CC5)[C@H](Cc5ccc(C(N)=O)cc53)[C@]4(O)CC2)c1` [Example 244, (5aS,6R,11bS)-14-(cyclopropylmethyl)-5a-hydroxy-3-(2-(4-methyl-1H-pyrazol-1-yl)ethyl)-1,2,3,4,5,5a,6,7-octahydro-6,11b-(epiminoethano)naphtho[1,2-d]azepine-10-carboxamide] came in with an EC50 at human κ opioid receptors of 0.47 nM. The same compound displayed an intrinsic clearance (CLint scaled) in the data set “Metabolic stability test” of 7.7 mL/min/kg.

In “Metabolic stability test”, `O=C(Cc1ncccn1)N1CC[C@]23CCN(CC4CC4)[C@H](Cc4ccc(O)cc42)[C@]3(O)CC1` [Example 20, 1-((5aS,6R,11bR)-14-(cyclopropylmethyl)-5a,10-dihydroxy-1,2,5,5a,6,7-hexahydro-6,11b-(epiminoethano)naphtho[1,2-d]azepin-3(4H)-yl)-2-(pyrimidin-2-yl)ethan-1-one] displayed a CLint scaled of 3.9 mL/min/kg. Regarding `O=C(Cc1ccccn1)N1CC[C@]23CCN(CC4CC4)[C@H](Cc4cc(C(F)(F)F)c(O)cc42)[C@]3(O)CC1` [Example 320, 1-((5aS,6R,11bR)-14-(cyclopropylmethyl)-5a,10-dihydroxy-9-(trifluoromethyl)-1,2,5,5a,6,7-hexahydro-6,11b-(epiminoethano)naphtho[1,2-d]azepin-3(4H)-yl)-2-(pyridin-2-yl)ethan-1-one], in the data set “Metabolic stability test”, the CLint scaled amounted to 22.9 mL/min/kg. The same measure, in the same setting: under `Cc1cnn(CCN2CC[C@]34CCN(CC5CC5)[C@H](Cc5cccc(O)c53)[C@]4(O)CC2)c1` [Example 277, (5aS,6R,11bS)-14-(cyclopropylmethyl)-3-(2-(4-methyl-1H-pyrazol-1-yl)ethyl)-2,3,4,5,6,7-hexahydro-6,11b-(epiminoethano)naphtho[1,2-d]azepine-5a,11(1H)-diol] stands 6.4 mL/min/kg.

Regarding `NC(=O)c1ccc2c(c1O)[C@@]13CCN(C(=O)Cc4ccccn4)CC[C@@]1(O)[C@@H](C2)N(CC1CC1)CC3` [Example 353, (5aS,6R,11bR)-14-(cyclopropylmethyl)-5a,11-dihydroxy-3-(2-(pyridin-2-yl)acetyl)-1,2,3,4,5,5a,6,7-octahydro-6,11b-(epiminoethano)naphtho[1,2-d]azepine-10-carboxamide], the CLint scaled in the data set “Metabolic stability test” was 7.9 mL/min/kg. As for `Cc1cnn(CCN2CC[C@]34CCN(CC5CC5)[C@H](Cc5cc(I)c(O)cc53)[C@]4(O)CC2)c1` [Example 298, (5aS,6R,11bS)-14-(cyclopropylmethyl)-9-iodo-3-(2-(4-methyl-1H-pyrazol-1-yl)ethyl)-2,3,4,5,6,7-hexahydro-6,11b-(epiminoethano)naphtho[1,2-d]azepine-5a,10(1H)-diol], in “Metabolic stability test”, the CLint scaled stood at 22.5 mL/min/kg. On to `Cc1cc2c(cc1O)[C@@]13CCN(C(=O)Cc4cccc(C(F)(F)F)n4)CC[C@@]1(O)[C@@H](C2)N(CC1CC1)CC3` [Example 322, 1-((5aS,6R,11bR)-14-(cyclopropylmethyl)-5a,10-dihydroxy-9-methyl-1,2,5,5a,6,7-hexahydro-6,11b-(epiminoethano)naphtho[1,2-d]azepin-3(4H)-yl)-2-(6-(trifluoromethyl)pyridin-2-yl)ethan-1-one], for which, in the data set “Metabolic stability test”, the intrinsic metabolic clearance (CLint scaled) came out at 6.6 mL/min/kg.

On human κ opioid receptors, `Cc1cc(CC(=O)N2CC[C@]34CCN(CC5CC5)[C@H](Cc5cc(C)c(O)cc53)[C@]4(O)CC2)ns1` [Example 323, 1-((5aS,6R,11bR)-14-(cyclopropylmethyl)-5a,10-dihydroxy-9-methyl-1,2,5,5a,6,7-hexahydro-6,11b-(epiminoethano)naphtho[1,2-d]azepin-3(4H)-yl)-2-(5-methylisothiazol-3-yl)ethan-1-one] had an EC50 of 0.18 nM.

`Oc1ccc2c(c1)[C@@]13CCN(CCn4cc(C5CC5)cn4)CC[C@@]1(O)[C@@H](C2)N(CC1CC1)CC3` [Example 183, (5aS,6R,11bS)-3-(2-(4-cyclopropyl-1H-pyrazol-1-yl)ethyl)-14-(cyclopropylmethyl)-2,3,4,5,6,7-hexahydro-6,11b-(epiminoethano)naphtho[1,2-d]azepine-5a,10(1H)-diol] registered an EC50 at human κ opioid receptors of 0.03 nM. Consider `CC1(C)C[C@@]2(O)[C@H]3Cc4ccc(O)cc4[C@@]2(CCN3CC2CC2)CCN1C(=O)Cc1ccccn1` [Example 343, 1-((5aS,6R,11bR)-14-(cyclopropylmethyl)-5a,10-dihydroxy-4,4-dimethyl-1,2,5,5a,6,7-hexahydro-6,11b-(epiminoethano)naphtho[1,2-d]azepin-3(4H)-yl)-2-(pyridin-2-yl)ethan-1-one], for which the concentration for a half-maximal effect (EC50) on human κ opioid receptors is 0.56 nM.

As a reminder, the CLint scaled is the rate of metabolic loss divided by the concentration. Low readings indicate slow turnover, high ones rapid turnover. By EC50 is commonly meant the concentration giving half of the maximal effect.
